From article PMC6270570, “New Flurbiprofen Derivatives: Synthesis, Membrane Affinity and Evaluation of in Vitro Effect on β-Amyloid Levels” (Molecules, 2013)
Read-outs that look alike come from different tables or passages of the source. Marks after values point to notes of the source that are not given here.

How the values were obtained:
[1] = RP-HPLC retention factor extrapolated to 100% water (KC18/W); assay type: physicochemical; conditions: for KC18/W (retention factor extrapolated to 100% water): RP-HPLC, acetonitrile/water mixtures; for chromatographic logP: by comparison with KC18/W and logP of nisoldipine and lacidipine, read-out: logP calculated from KC18/W
Procedure: Similarly, due to their high lipophilicity, experimental n-octanol/water lipophilicity values of enantiomers 8/9 were determined by RP-HPLC because their characterization through the “classical” shake-flask method was expected to be difficult and scarcely reproducible. The retention factor, determined in acetonitrile/water mixtures and extrapolated to 100% water (KC18/W) for enantiomers 8/9 was 3.94 (data not shown).

[2] = IAM-HPLC affinity for membrane phospholipids (logKIAM/W); assay type: physicochemical; conditions: IAM.PC.MG column, pH 7.0 phosphate buffer/acetonitrile, extrapolated to 100% aqueous eluent
Procedure: n-Octanol/water partition coefficients were theoretically calculated by the program clogP for windows version 2.0 (Biobyte Corp., Claremont, CA, USA). Affinity for membrane phospholipids, so called “phospholipophilicity”, was measured by HPLC on a phospholipid stationary phase. […] liquid chromatograph (Waters-Millipore, Milford, MA, USA), equipped with a 7125 Rheodyne injection valve and a 486 UV detector (Waters) set at 246 nm, was used. The column was an IAM.PC.MG (Immobilized Artificial Membrane-PhosphatidylCholine-MethylGlycolate) (4.6 mm × 150 mm) (Regis Chemical Company, Morton Grove, IL, USA). The mobile phase was 0.01 M phosphate buffer at pH 7.0 and acetonitrile at percentages ranging from 10 to 35 percent (v/v) (from 1.0 to 4.0 mL/min). The chromatography was carried out at room temperature. All samples were dissolved in methanol (ca. 10^-3 M) and 20 μL samples were injected in the chromatograph. Chromatographic retention data are expressed as the logarithm of the capacity factor, log k, defined as: log k = log [(tr - t0)/t0] (1) where tr and t0 are the retention times of the drug and a non-retained compound (citric acid), respectively. The log k values relative to 100% aqueous eluent (logKIAM/W) were calculated by performing a polycratic method of extrapolation. Each compound was eluted with at least three different mobile phases containing acetonitrile in different percentages (φ). […] All values of log k reported are the average of at least three measurements; the 95% confidence interval never exceeded 0.04 for each log k value. Possible occurrence of retention changes due to column aging was monitored by checking the retention times of five test compounds (amlodipine, p-nitroaniline, toluene, isradipine, and ketoprofen).

[3] = PAMPA-GI permeability (egg lecithin in dodecane); assay type: in vitro ADME; conditions: read-out: PAMPA-GI Pe
Procedure: (§1) The following protocol was applied to measure the Pe through the artificial membrane to predict oral absorption and BBB permeation. In order to study the g.i. permeability, a 2% solution (w/v) of egg lecithin (phosphatidyl choline > 98%, PC) in dodecane was employed as an artificial membrane solution. The effective permeability of BBB was measured using phospholipid mixture from porcine polar brain lipid extract, composed by PC 12.6%, phosphatidylethanolamine (PE) 33.1%, phosphatidylserine (PS) 18.5%, phosphatidylinositol (PI) 4.1%, phospatidic acid (PA) 0.8% and 30.9% of other compounds (purchased from Avantis Polar Lipids, Alabaster, AL, USA). Each donor filtration plate well was then impregnated with 5 µL of this solution carefully, and immediately after 150 µL of phosphate buffer (pH 7.4/pH 6.5), containing co-drug 1 500 µM and iPrOH 20% as co-solvent was added. Then the drug-filled donor plate was placed into the acceptor plate that had been prefilled with the same buffer (300 µL) as acceptor solution. After plate lid was replaced, the resulting assembled donor-acceptor plates were incubated at r.t. for 2 h for PAMPA-GI and 18 h for PAMPA-BBB, following which drugs concentration in the acceptor and donor solutions were determined by HPLC [37].
(§2) Log Pe can be calculated from the equation below: [drawing 10] (2) where Pe is the effective permeability coefficient (cm x s^−1), VD is volume of donor compartment (0.15 cm^3) and VA is volume of acceptor compartment (0.30 cm^3), A is effective filter area (0.28 cm^2), t is incubation time for the assay (s), Cacceptor is the concentration of the compound in the acceptor compartment at the completion of the assay, and Cequilibrium is the concentration of compound at theoretical equilibrium.

[4] = PAMPA-BBB permeability (porcine polar brain lipid extract); assay type: in vitro ADME; conditions: pH 7.4, 18 h of incubation; for Papp at 18 h, 500 µM: PAMPA, read-out: PAMPA-BBB Pe
Procedure: as §1, §2

Aβ-42 = assay: Western blotting of Aβ-42 expression in CTXTNA2 astrocytes (in vitro γ-secretase activity); assay type: cell-based, rat; conditions: 24 h
Procedure: CTXTNA2 cell line, established from primary cultures of type 1 astrocytes from brain frontal cortex tissue of 1 day old rats, was obtained by ECACC (Salisbury, UK). Cells have been maintained in DMEM, 10% FBS at 37 °C, 5% CO2 until sub-confluence and incubated for 24 h with a DMSO solution of drug (concentrations ranging from 1 µM to 100 µM). For detection of cell viability, a Trypan blue dye exclusion test has been performed.
Cell lysates (20 µg) have been electrophoresed and transferred to nitrocellulose membrane. Nitrocellulose membranes, blocked in 5% non-fat milk, 10 mmol/L Tris pH 7.5, 100 mmol/L NaCl, 0.1% Tween-20, have been probed with mouse APP (Millipore, Billerica, MA, USA) and Aβ (Alpha Diagnostic Intl, San Antonio, TX, USA) monoclonal antibodies (Santa Cruz Biotechnology, Santa Cruz, CA, USA), then incubated in the presence of specific enzyme conjugated IgG horseradish peroxidase. Immunoreactive bands have been detected by ECL detection system (Amersham Intl., Buckinghamshire, UK) and analysed by densitometry. Densitometric values, expressed as Integrated Optical Intensity (I.O.I.), have been estimated in a CHEMIDOC XRS system by the QuantiOne 1-D analysis software (BioRad, Richmond, CA, USA). Values obtained have been normalized basing on densitometric values of internal β tubulin. Statistical analysis has been performed using the analysis of variance (ANOVA). Results have been expressed as mean ± SD. Values of p < 0.05 have been considered statistically significant.

APP = conditions: 24 h
Procedure: For detection of cell viability, a Trypan blue dye exclusion test has been performed [33].
Cell lysates (20 µg) have been electrophoresed and transferred to nitrocellulose membrane. […] Immunoreactive bands have been detected by ECL detection system (Amersham Intl., Buckinghamshire, UK) and analysed by densitometry. Densitometric values, expressed as Integrated Optical Intensity (I.O.I.), have been estimated in a CHEMIDOC XRS system by the QuantiOne 1-D analysis software (BioRad, Richmond, CA, USA). Values obtained have been normalized basing on densitometric values of internal β tubulin. Statistical analysis has been performed using the analysis of variance (ANOVA). Results have been expressed as mean ± SD. Values of p < 0.05 have been considered statistically significant.

[5] = parameters: method as in doi:10.1016/0223-5234(96)80368-0; conditions: n-octanol/water; cited from earlier work

Compound	KC18/W (retention factor extrapolated to 100% water) [1]	chromatographic logP [1]	LogKIAM/W [2]	Papp at 2 h, 500 µM ([3]; pH 6.5, 2 h of incubation)	Papp at 2 h, 500 µM ([3]; pH 7.4, 2 h of incubation)	Papp at 18 h, 500 µM [4]	Expression of Aβ-42 (Aβ-42; 1 µM)	Expression of Aβ-42 (Aβ-42; 10 µM)	Expression of Aβ-42 (Aβ-42; 100 µM)	melting point	Expression of APP (APP; 1 µM)	Expression of APP (APP; 10 µM)	Expression of APP (APP; 100 µM)	logP (experimentally determined values) [5]	Aβ-42 production, effect in words (Aβ-42; 1 µM to 100 µM, without affecting the APP level)	PAMPA-BBB Pe [4]
CN1C(=O)[C@H](NC(=O)Cc2ccc(-c3ccccc3)c(F)c2)c2ccccc2-c2ccccc21 [Compound 8, 2-(2-Fluoro-1,1'-biphenyl-4-yl)-N-[(7R)-5-methyl-6-oxo-6,7-dihydro-5H-dibenzo[b,d]azepin-7-yl]-acetamide]	3.94	5.49	3.58	2.5 ×10⁻⁶ cm/s	2.6 ×10⁻⁶ cm/s	2.3 ×10⁻⁶ cm/s	(31.1 ± 0.9) × 10^−2	(25.0 ± 1.0) × 10^−2	(35.2 ± 1.1) × 10^−2	96 to 100 °C	(82.3 ± 3.2) × 10^−2	(68.1 ± 3.2) × 10^−2	(94.4 ± 4.2) × 10^−2			
CN1C(=O)[C@@H](NC(=O)Cc2ccc(-c3ccccc3)c(F)c2)c2ccccc2-c2ccccc21 [Compound 9, 2-(2-Fluoro-1,1'-biphenyl-4-yl)-N-[(7S)-5-methyl-6-oxo-6,7-dihydro-5H-dibenzo[b,d]azepin-7-yl]-acetamide]	3.94	5.49	3.58	2.5 ×10⁻⁶ cm/s	2.6 ×10⁻⁶ cm/s	2.3 ×10⁻⁶ cm/s	(43.2 ± 2.1) × 10^−2	(38.4 ± 1.0) × 10^−2	(14.0 ± 0.5) × 10^−2	96 to 100 °C	(68.7 ± 2.2) × 10^−2	(69.2 ± 1.4) × 10^−2	(94.3 ± 3.2) × 10^−2			
CCOC(=O)C1=C(C)NC(C)=C(C(=O)OCC)C1c1ccccc1/C=C/C(=O)OC(C)(C)C [Lacidipine, reference compound]	4.01		3.52											5.56 ^a		
C[C@H](NC(=O)[C@@H](C)c1ccc(-c2ccccc2)c(F)c1)C(=O)N[C@H](C(=O)OC(C)(C)C)c1ccccc1 [Compound 2, tert-Butyl(2S)-({N-[(2S)-2-(2-fluoro-1,1'-biphenyl-4-yl)propanoyl]-L-alanyl}amino)(phenyl)acetate]			3.80	3.6 ×10⁻⁶ cm/s	4.1 ×10⁻⁶ cm/s	2.1 ×10⁻⁶ cm/s	(20.0 ± 1.1) × 10^−2	(12.1 ± 0.6) × 10^−2	(8.4 ± 0.2) × 10^−2	106 to 108 °C	(93.1 ± 2.6) × 10^−2	(93.3 ± 3.5) × 10^−2	(63.6 ± 2.8) × 10^−2		highly effective	
C[C@H](NC(=O)Cc1ccc(-c2ccccc2)c(F)c1)C(=O)N[C@H](C(=O)OC(C)(C)C)c1ccccc1 [Compound 3, tert-butyl (2S)-({N-[(2-fluoro-1,1'-biphenyl-4-yl)acetyl]-L-alanyl}amino)(phenyl)acetate]			3.64	2.1 ×10⁻⁶ cm/s	2 ×10⁻⁶ cm/s		(8.8. ± 0.4) × 10^−2	(10.5 ± 0.4) × 10^−2	(45.8. ± 1.3) × 10^−2	104 to 106 °C	(64.1 ± 2.3) × 10^−2	(72.2 ± 2.1) × 10^−2	(105 ± 3.2) × 10^−2			2.0 10^−6 cm/s
C[C@H](NC(=O)[C@H](C)c1ccc(-c2ccccc2)c(F)c1)C(=O)N[C@H](C(=O)OC(C)(C)C)c1ccccc1 [Compound 1, tert-Butyl (2S)-({N-[(2R)-2-(2-fluoro-1,1'-biphenyl-4-yl)propanoyl]-L-alanyl}amino)(phenyl)acetate]			3.67	3.7 ×10⁻⁶ cm/s	4.8 ×10⁻⁶ cm/s	2.4 ×10⁻⁶ cm/s	(29.2 ± 1.2) × 10^−2	(43.5 ± 1.6) × 10^−2	(45.8. ± 1.3) × 10^−2	105 to 107 °C	(93.1 ± 3.8) × 10^−2	(89.4 ± 3.2) × 10^−2	(120 ± 3.2) × 10^−2			
COC(=O)C1=C(C)NC(C)=C(C(=O)OCC(C)C)C1c1ccccc1[N+](=O)[O-] (stereo not drawn) [Nisoldipine, reference compound]	2.99		2.63											4.53 ^a		
